{"source": "patent US8796281B2", "about": "“Lighting device having at least one heat sink” (Jinan University, priority 2010, dated 2014)", "key": {"24-month-old rats": {"tested_on": "24-month-old rats", "settings": "cited from earlier work"}, "aging accelerated mice": {"tested_on": "aging accelerated mice", "settings": "intraperitoneally injected daily; cited from earlier work"}, "[1]": {"settings": "in vivo; cited from earlier work"}, "Dopaminergic neurons": {"tested_on": "Dopaminergic neurons", "assay": "Cytoprotection on injuries of dopaminergic neurons induced by MPP+", "assay_type": "cell-based", "settings": "500 μM, 50 μM and 5 μM, MPP+ 10 μM, FIG. 5", "experimental": "Dopaminergic neurons were cultured for 5 days, and L-Deprenyl, TMP and TN-2 were added in a concentration gradient of 500 μM, 50 μM and 5 μM respectively. Two hours later, MPP^+(with a final concentration of 10 μM) was added into each of the wells except those of the control."}, "PC12 cells": {"tested_on": "PC12 cells", "assay": "Cytoprotection of PC12 cells against t-BHP-induced damage (MTT)", "assay_type": "cell-based, rats", "settings": "t-BHP 200 μM, FIG. 3", "experimental": "PC12 cells were inoculated in a 96-well plate of strong adsorption with 90 μL per well, cultured for 36 hrs in an incubator set at 37° C. and 5% CO2. After 36 hrs, each of the drugs was added in four concentration gradients. Cultured for half an hour in an incubator set at 37° C. and 5% CO2, replaced with serum-free medium, t-BHP ([…], final concentration of 200 μM) was added in each of the wells except the well of the control. Then the material was placed and cultured in an incubator for 24 hrs. The cells were cultured for 24 hrs, and MTT (15 μL, 5 mg/mL) was added in each of the wells. The material was cultured in an incubator for 4 hrs, and then DMSO ([…]) was added in each of the wells to be further incubated for at least half an hour to ensure the crystals were completely dissolved. The absorbance (A value) was measured by using a micro-plate reader at 570 nm."}, "[2]": {"tested_on": "rats with ischemia caused by MCAo", "assay": "Protection of rats having cerebral ischemia caused by MCAO (TTC, extent of cerebral infarction)", "assay_type": "in vivo", "settings": "65 mg/kg intravenously 1 hr after ischemia, 2 hrs ischemia, 24 hrs reperfusion, FIG. 4", "experimental": "Anesthesia was performed on rats (female SD rats, in body weight of 260-300 g) with intraperitoneal injection of 10% hydrated chloral hydrate in a dose of 400 mg/kg or with inhalation of 3.5% halothane. At the entrance of MCAO (Middle Cerebral Artery Occlusion Ischemia) was blocked with a nylon wire to cause cerebral ischemia. After ischemia occurred for 1 hr, the rats were respectively intravenously injected with EDA (63 mg/kg), TBN (80 mg/kg), TN-2 (65 mg/kg), and saline (control group). There were 6 rats in each group. After ischemia occurred for 2 hrs, the nylon wires were removed, and reperfusion was performed for 24 hrs. Brain tissues were taken and the cerebellums were removed. The material was rinsed in PBS solution, and put in a freezer set at −20° C. for a moment, and the brain tissues were cut into slices with a thickness of about 2 mm, and immediately placed in a solution of 0.5% triphenyltetrazolium chloride (TTC). Incubation was performed at 37° C. for 30 minutes. The extent of cerebral infarction was evaluated. […] In FIG. 4, the data were examined by one-tailed t-test; the mark “*” refers to the data in comparison with the control; drug dosage: TBN (80 mg/kg), and Edaravone (63 mg/kg); and each of the drugs were used in equal molarity."}, "[3]": {"settings": "32 mg/kg intraperitoneally daily for 9.5 months"}}, "note": "“Also recorded” adds a separate entry of the source.", "data": [{"smiles": "CC(C)(C)/[N+]([O-])=C/c1ccccc1", "note": "[PBN, Phenyl-tert-Butyl Nitrones]", "values": [{"measurement": "cognitive ability for older rats", "setting": "24-month-old rats; [3]", "result": "enhanced"}, {"measurement": "lipid peroxidation reactions in cerebral cortex and globus pallidus", "setting": "24-month-old rats; [3]", "result": "diminished"}, {"measurement": "rats still alive", "setting": "24-month-old rats; when the experiment was run for 32 months", "result": "7 of the 11"}, {"measurement": "increase in the lifespan of the mice", "setting": "aging accelerated mice", "result": 33, "unit": "%"}]}, {"smiles": "Cc1nc(C)c(C)nc1C", "note": "[TMP, Tetramethylpyrazine]", "values": [{"measurement": "bioavailability", "setting": "[1]", "result": "low"}]}, {"smiles": "Cc1nc(/C=[N+](/[O-])C(C)(C)C)c(C)nc1/C=[N+](/[O-])C(C)(C)C", "note": "[TN-2]", "values": [{"measurement": "cytoprotection to the MPP+-induced cell damage", "setting": "Dopaminergic neurons", "result": "significant"}, {"measurement": "cytoprotection towards the t-BHP-induced cell damage", "setting": "PC12 cells; 24 hrs, MTT absorbance at 570 nm", "result": "significant effect of cytoprotection; also recorded: significant protective effects"}, {"measurement": "intensity of the cytoprotective effect compared with TMP", "setting": "PC12 cells", "result": "significantly higher than that of TMP"}, {"measurement": "treatment effects on stroke of the rats (extent of cerebral infarction)", "setting": "[2]", "result": "significant treatment effects"}]}]}
